Laboratory results: patent US20170020909A1, “METHODS OF TREATING GLAUCOMA USING AMP-ACTIVATED PROTEIN KINASE (AMPK) ACTIVATORS” (Massachusetts Eye and Ear Infirmary, priority 2014, published 2017)

Tests used:
RhoA = assay: Immunoblot of p-RhoA (Ser188)/total RhoA in human TM cell lysates; assay type: cell-based; conditions: 0.5 mM AICAR
Procedure: Primary human trabecular meshwork (TM) cells were isolated, in accordance with the Declaration of Helsinki, and maintained in culture as described previously.^63 Independent primary human TM cell lines were generated from donors ranging in age from 35 to 72 years and no known history of ocular disease. Cell cultures were maintained, unless otherwise stated, in Dulbecco's modified eagle medium (Life Technologies, Grand Island, N.Y.) containing 20% fetal bovine serum, 1% L-glutamine (2 mM), and gentamicin (0.1 mg/ml) at 37° C. in a 10% CO2 atmosphere. Only TM cells from third through fifth passage were used. […]
At the conclusion of each experiment for matricellular and ECM protein detection, conditioned media (CM) from TM cell cultures was harvested and centrifuged at 5000 rpm for 10 minutes at 4° C. The supernatant was then concentrated (Amicon Ultra-4 Filter Unit, 10 kDa; Millipore, Milford, Mass.), and protein content quantified using the DC Protein Assay kit adhering to manufacturer's protocols (Bio-Rad, Hercules, Calif.). […] Samples were then centrifuged at 14,000 rpm for 15 minutes at 4° C. and protein content quantified. […] The membranes were then washed three times with 1×TBS-T, scanned, and integrated band intensities were calculated using an infrared imaging system (Odyssey; Li-Cor, Lincoln, Nebr.). […]

[1] = system: perfused ex vivo human anterior segments; assay: IOP in constant-flow-perfused ex vivo human anterior segments; conditions: 2.5 μL of 200 mM AICAR in 1 mL of ex vivo media, by day 7, mean±SEM, n=3
Description: The effects of AICAR on IOP in perfused constant flow ex vivo human anterior segments was examined using well-established and validated methods (see, e.g., Oh et al., Invest. Ophthalmol. Vis. Sci. 2013; 54:3309-19; Ethier et al., Invest. Ophthalmol. Vis. Sci. 2004; 45:1863-70). Briefly, all donor pairs of eyes were obtained from National Disease Research Interchange (NDRI, Philadelphia, Pa.) according to the provisions of the Declaration of Helsinki for research involving human tissue. Eyes were obtained within 24 hours after death. No donors were known to have a history of glaucoma or other ocular disorder. Human perfused anterior segment cultures were prepared by scoring the surface of the eye around ora serrata with a surgical blade, and the full-thickness incision was completed around the eye with scissors. The vitreous, lens, and iris were removed. […] IOP was monitored with a pressure transducer (Argon Medical Devices, Athens, Tex.) and were recorded with an automated computerized system (National Instruments, Austin, Tex.) every second and averaged each hour. […] Effects of AICAR treatment on IOP are expressed as the percentage change in IOP (compared to baseline). Values are expressed as mean±SEM, and paired two-tailed student t-tests are applied to determine significance of difference in IOP between control and experimental groups at selected time intervals. […]

NC(=O)c1ncn([C@@H]2O[C@H](CO)[C@@H](O)[C@H]2O)c1N [AICAR, 5-Aminoimidazole-4-carboxamide riboside]
duration of the phospho-total RhoA ratio increase (RhoA; through 24 hours): remained statistically significant through 24 hours
increase of phospho-total RhoA ratio (Ser188) (RhoA; within one hour, human TM cells): approximately 10 fold
mean decrease in IOP compared with paired opposite eye controls [1]: 18.54±1.78%
